From patent US9206159B2, “Piperazine-piperidine compounds as hepatitis C virus inhibitors” (Theravance Biopharma R&D IP, LLC, priority 2012, dated 2015)

Test system: HCV genotype 1a replicon cell line
Test: HCV Genotype 1a Replicon Assay
Type: cell-based, hepatitis C virus
Settings: Huh7.5 cell background, NS3-specific protease activity in lysates, 48 or 72 hours; for EC50: Hepatitis C virus, read-out: Genotype 1a (pEC50 class) (converted)
Method: Assay 2: HCV Genotype 1a Replicon Assay
The HCV genotype 1a replicon cell line was obtained from Apath LLC (APC89; Huh7.5 cell background). This subgenomic replicon contains the N-terminus of the HCV core protein fused to the neomycin-resistance selectable marker. The EMCV IRES lies downstream and drives expression of the non-structural proteins NS3-NS5B. Compound potencies were determined using the NS3-specific protease activity in lysates as a measurement of compound inhibition of replicon levels.
Cells were grown at 37° C. in a 5% CO2 humidified incubator in DMEM (Invitrogen) with 10% FBS (HyClone), 1×NEAA (Invitrogen), 1× Pen-Strep (Invitrogen), and 850 μg/mL G418 (Invitrogen). On day 1 of the assay, cells were plated at 15,000 cells/well in black 96-well tissue culture plates (Costar) in 200 μL media lacking G418. Four hours later, once the cells had adhered, the media was removed and replaced with media (no G418) containing dose-responses of test compounds. Compounds were initially diluted in DMSO and then diluted another 200× in media to bring the final DMSO concentration down to 0.5%. The cells were incubated with test compounds for 48 or 72 hours. At the end of the incubation period, media and compound were removed from the plates.
To determine the NS3-specific protease activity in lysates, the cells were lysed at room temperature in 50 μL/well of 50 mM Hepes pH 7.5, 150 mM NaCl, 15% Glycerol, 0.15% Triton X-100, 10 mM DTT for 20 minutes with shaking. 50 μL of an NS3/4a protease-specific FRET substrate (Anaspec RET SI Cat#22991) was then added to the wells at a final concentration of 15 μM. The plates were incubated at 37° C. for 20 minutes, which corresponds to a timepoint at which the protease activity is still in the linear phase. Protease activity was determined by measuring fluorescence (Excitation: 340 nm; Emission: 509 nm).
To analyze the data, the fluorescence was plotted vs. the compound concentration, and EC50 values were determined from a 4-parameter robust fit model using GraphPad Prism software.

| Compound | Genotype 1a (pEC50 class) | EC50 [nM] |
| --- | --- | --- |
| COC(=O)N[C@H](C(=O)N1C[C@@H](C)C[C@H]1c1nc(-c2ccc(-c3ccc(NC(=O)N4CCN(C5CCN(C(=O)C(C)(C)CO)CC5)CC4)cc3OC(F)(F)F)cc2)c[nH]1)C(C)C [Example 2-29] | C (C represents pEC50 between and 9 and about 10, (EC50 between 1 nM and 0.1 nM)) |  |
| COC(=O)N[C@H](C(=O)N1CCC[C@H]1c1nc(-c2ccc(-c3ccc(NC(=O)N4CCC(N5CCN(C(=O)OC(C)(C)C)CC5)CC4)cc3)cc2)c[nH]1)C(C)C [Example 3-1] | A (A represents a pEC50 value between 6 and 8 (EC50 between 1 μM and 10 nM)) |  |
| COC(=O)N[C@H](C(=O)N1CCC[C@H]1c1nc(-c2ccc(-c3ccc(NC(=O)N4CCC(N5CCN(C(=O)C6CC6)CC5)CC4)cc3)cc2)c[nH]1)C(C)C [Example 3-3] | A (A represents a pEC50 value between 6 and 8 (EC50 between 1 μM and 10 nM)) |  |
| CNC(=O)N1CCN(C2CCN(C(=O)Nc3ccc(-c4ccc(-c5c[nH]c([C@@H]6CCCN6C(=O)[C@@H](NC(=O)OC)C(C)C)n5)cc4)cc3)CC2)CC1 [Example 3-5] | A (A represents a pEC50 value between 6 and 8 (EC50 between 1 μM and 10 nM)) |  |
| COC(=O)N[C@H](C(=O)N1CCC[C@H]1c1nc(-c2ccc(-c3ccc(NC(=O)N4CCC(N5CCN(C(=O)OC)CC5)CC4)cc3)cc2)c[nH]1)C(C)C [Example 3-6] | A (A represents a pEC50 value between 6 and 8 (EC50 between 1 μM and 10 nM)) |  |
| COC(=O)N[C@H](C(=O)N1CCC[C@H]1c1nc(-c2ccc(-c3ccc(NC(=O)N4CCC(N5CCN(C(=O)OC(C)(C)C)[C@H](C)C5)CC4)cc3OC(F)(F)F)cc2)c[nH]1)C(C)C [Example 3-7] | B (B represents pEC50 between 8 and 9 (EC50 between 1 and 10 nM)) |  |
| COC(=O)N[C@H](C(=O)N1CCC[C@H]1c1nc(-c2ccc(-c3ccc(NC(=O)N4CCC(N5CCN(C(=O)[C@H]6CC6(C)C)[C@H](C)C5)CC4)cc3OC(F)(F)F)cc2)c[nH]1)C(C)C [Example 3-8] | B (B represents pEC50 between 8 and 9 (EC50 between 1 and 10 nM)) |  |
| COC(=O)N[C@H](C(=O)N1C[C@@H](C)C[C@H]1c1nc(-c2ccc(-c3cc(Cl)c(NC(=O)N4CCN(C5CCN(C(=O)[C@H]6CC6(C)C)CC5)CC4)cc3OC(F)(F)F)cc2)c[nH]1)C(C)C [Example 3] | C (C represents pEC50 between and 9 and about 10, (EC50 between 1 nM and 0.1 nM)) |  |
| COC(=O)N[C@H](C(=O)N1C[C@@H](C)C[C@H]1c1nc(-c2ccc(-c3cc(Cl)c(NC(=O)N4CCC(N5CCN(C(=O)OC(C)(C)C)[C@@H](C)C5)CC4)cc3OC(F)(F)F)cc2)c[nH]1)C(C)C [Example 4-1] | A (A represents a pEC50 value between 6 and 8 (EC50 between 1 μM and 10 nM)) |  |
| COC(=O)N[C@H](C(=O)N1C[C@@H](C)C[C@H]1c1nc(-c2ccc(-c3cc(Cl)c(NC(=O)N4CCC(N5CCN(C(=O)[C@H]6CC6(C)C)[C@@H](C)C5)CC4)cc3OC(F)(F)F)cc2)c[nH]1)C(C)C [Example 4-2] | C (C represents pEC50 between and 9 and about 10, (EC50 between 1 nM and 0.1 nM)) |  |
| COC(=O)N[C@H](C(=O)N1C[C@@H](C)C[C@H]1c1nc(-c2ccc(-c3cc(Cl)c(NC(=O)N4CCC(N5CCN(C(=O)C(C)(C)C)[C@@H](C)C5)CC4)cc3OC(F)(F)F)cc2)c[nH]1)C(C)C [Example 4-3] | B (B represents pEC50 between 8 and 9 (EC50 between 1 and 10 nM)) |  |
| CNC(=O)N1CCN(C2CCN(C(=O)Nc3cc(OC(F)(F)F)c(-c4ccc(-c5c[nH]c([C@@H]6C[C@H](C)CN6C(=O)[C@@H](NC(=O)OC)C(C)C)n5)cc4)cc3Cl)CC2)C[C@@H]1C [Example 4-4] | B (B represents pEC50 between 8 and 9 (EC50 between 1 and 10 nM)) |  |
| COC(=O)N[C@H](C(=O)N1C[C@@H](C)C[C@H]1c1nc(-c2ccc(-c3cc(Cl)c(NC(=O)N4CCC(N5CCN(C(=O)C6CC6)[C@@H](C)C5)CC4)cc3OC(F)(F)F)cc2)c[nH]1)C(C)C [Example 4-5] | B (B represents pEC50 between 8 and 9 (EC50 between 1 and 10 nM)) |  |
| COC(=O)N[C@H](C(=O)N1C[C@@H](C)C[C@H]1c1nc(-c2ccc(-c3cc(F)c(NC(=O)N4CCC(N5CCN(C(=O)OC(C)(C)C)CC5)CC4)cc3OC(F)(F)F)cc2)c[nH]1)C(C)C [Example 4-6] | B (B represents pEC50 between 8 and 9 (EC50 between 1 and 10 nM)) |  |
| COC(=O)N[C@H](C(=O)N1C[C@@H](C)C[C@H]1c1nc(-c2ccc(-c3cc(F)c(NC(=O)N4CCC(N5CCN(C(=O)C(C)(C)C)CC5)CC4)cc3OC(F)(F)F)cc2)c[nH]1)C(C)C [Example 4-7] | C (C represents pEC50 between and 9 and about 10, (EC50 between 1 nM and 0.1 nM)) |  |
| COC(=O)N[C@H](C(=O)N1C[C@@H](C)C[C@H]1c1nc(-c2ccc(-c3cc(F)c(NC(=O)N4CCC(N5CCN(C(=O)[C@H]6CC6(C)C)CC5)CC4)cc3OC(F)(F)F)cc2)c[nH]1)C(C)C [Example 4-8] | C (C represents pEC50 between and 9 and about 10, (EC50 between 1 nM and 0.1 nM)) |  |
| COC(=O)N[C@H](C(=O)N1C[C@@H](C)C[C@H]1c1nc(-c2ccc(-c3cc(F)c(NC(=O)N4CCC(N5CCN(C(=O)C6CC6)CC5)CC4)cc3OC(F)(F)F)cc2)c[nH]1)C(C)C [Example 4-9] | C (C represents pEC50 between and 9 and about 10, (EC50 between 1 nM and 0.1 nM)) |  |
| COC(=O)N[C@H](C(=O)N1C[C@@H](C)C[C@H]1c1nc(-c2ccc(-c3ccc(NC(=O)N4CCC(N5CCN(C(=O)C(C)(C)C)CC5)CC4)cc3OC(F)(F)F)cc2)c[nH]1)C(C)C [Example 4-10] | C (C represents pEC50 between and 9 and about 10, (EC50 between 1 nM and 0.1 nM)) |  |
| COC(=O)N[C@H](C(=O)N1C[C@@H](C)C[C@H]1c1nc(-c2ccc(-c3ccc(NC(=O)N4CCC(N5CCN(C(=O)[C@H]6CC6(C)C)CC5)CC4)cc3OC(F)(F)F)cc2)c[nH]1)C(C)C [Example 4-11] | C (C represents pEC50 between and 9 and about 10, (EC50 between 1 nM and 0.1 nM)) |  |
| COC(=O)N[C@H](C(=O)N1C[C@@H](C)C[C@H]1c1nc(-c2ccc(-c3cc(Cl)c(NC(=O)N4CCC(N5CCN(C(=O)OC(C)(C)C)CC5)CC4)cc3OC(F)(F)F)cc2)c[nH]1)C(C)C [Example 4-12] | B (B represents pEC50 between 8 and 9 (EC50 between 1 and 10 nM)) |  |
| COC(=O)N[C@H](C(=O)N1C[C@@H](C)C[C@H]1c1nc(-c2ccc(-c3cc(Cl)c(NC(=O)N4CCC(N5CCN(C(=O)C(C)(C)C)CC5)CC4)cc3OC(F)(F)F)cc2)c[nH]1)C(C)C [Example 4-13] | B (B represents pEC50 between 8 and 9 (EC50 between 1 and 10 nM)) |  |
| COC(=O)N[C@H](C(=O)N1C[C@@H](C)C[C@H]1c1nc(-c2ccc(-c3cc(Cl)c(NC(=O)N4CCC(N5CCN(C(=O)[C@H]6CC6(C)C)CC5)CC4)cc3OC(F)(F)F)cc2)c[nH]1)C(C)C [Example 4-14] | C (C represents pEC50 between and 9 and about 10, (EC50 between 1 nM and 0.1 nM)) |  |
| COC(=O)N[C@H](C(=O)N1C[C@@H](C)C[C@H]1c1nc(-c2ccc(-c3cc(Cl)c(NC(=O)N4CCC(N5CCN(C(=O)C6CC6)CC5)CC4)cc3OC(F)(F)F)cc2)c[nH]1)C(C)C [Example 4-15] | B (B represents pEC50 between 8 and 9 (EC50 between 1 and 10 nM)) |  |
| COC(=O)N[C@H](C(=O)N1C[C@@H](C)C[C@H]1c1nc(-c2ccc(-c3cc(Cl)c(NC(=O)N4CCC(N5CCN(C(=O)C(C)(C)C)C[C@H]5C)CC4)cc3OC(F)(F)F)cc2)c[nH]1)C(C)C [Example 4-16] | C (C represents pEC50 between and 9 and about 10, (EC50 between 1 nM and 0.1 nM)) |  |
| COC(=O)N[C@H](C(=O)N1C[C@@H](C)C[C@H]1c1nc(-c2ccc(-c3cc(Cl)c(NC(=O)N4CCC(N5CCN(C(=O)[C@H]6CC6(C)C)C[C@H]5C)CC4)cc3OC(F)(F)F)cc2)c[nH]1)C(C)C [Example 4-17] | C (C represents pEC50 between and 9 and about 10, (EC50 between 1 nM and 0.1 nM)) |  |
| COC(=O)N[C@H](C(=O)N1C[C@@H](C)C[C@H]1c1nc(-c2ccc(-c3cc(Cl)c(NC(=O)N4CCN(C5CCN(C(=O)C(C)(C)C)CC5)CC4)cc3OC(F)(F)F)cc2)c[nH]1)C(C)C [Example 4] |  | 0.1 to 1 |
| COC(=O)N[C@H](C(=O)N1C[C@@H](OC)C[C@H]1c1nc(-c2ccc(-c3ccc(NC(=O)N4CCN(C5CCN(C(=O)C(C)(C)C)CC5)CC4)cc3OC(F)(F)F)cc2)c[nH]1)C(C)C [Example 5-1] |  | 0.1 to 1 |
| COC(=O)N[C@H](C(=O)N1C[C@@H](OC)C[C@H]1c1nc(-c2ccc(-c3ccc(NC(=O)N4CCN(C5CCN(C(=O)[C@H]6CC6(C)C)CC5)CC4)cc3OC(F)(F)F)cc2)c[nH]1)C(C)C [Example 5-2] | C (C represents pEC50 between and 9 and about 10, (EC50 between 1 nM and 0.1 nM)) |  |
| COC(=O)N[C@H](C(=O)N1C[C@@H](OC)C[C@H]1c1nc(-c2ccc(-c3ccc(NC(=O)N4CCN(C5CCN(C(=O)C6CC6)CC5)CC4)cc3OC(F)(F)F)cc2)c[nH]1)C(C)C [Example 5-3] |  | 0.1 to 1 |
